Data published in PubChem BioAssay AID1963960 (Molecular Pharmacology Branch, DTP, NCI, 2024).
pIC50: −log10 of the molar value.

System: MDA-MB-468 spheroids with HUVEC/MSC, viability
Assay: Anticancer human tumor MDA-MB-468 cell line growth inhibition [PI3K];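 further: spheroids exposed to agents for seven days before readout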;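 on viability, T/C: 100% = DMSO vehicle control viability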
Conditions: for pIC50: curve of first compound; for viability, T/C: stronger effect = lower value; active means viability on the fitted dose curve at most 10% of control; inactive means the rest
How it was run: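 Three cell types, namely tumor cells, endothelial cells and mesenchymal stem cells, formed each spheroid. Combinations with four PI3K inhibitors were screened at clinically achievable concentrations decreasing by half-log, and spheroid viability was recorded.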

[1] = second compound 0.00316 µM, first compound 0.0316 µM
[2] = second compound 0.00316 µM, first compound 0.1 µM
[3] = second compound 0.00316 µM, first compound 0.316 µM
[4] = second compound 0.00316 µM, first compound 1 µM
[5] = second compound 0.00316 µM, first compound 3.16 µM
[6] = second compound 0.00316 µM, first compound 10 µM
[7] = second compound 0.01 µM, first compound 0.0316 µM
[8] = second compound 0.01 µM, first compound 0.1 µM
[9] = second compound 0.01 µM, first compound 0.316 µM
[10] = second compound 0.01 µM, first compound 1 µM
[11] = second compound 0.01 µM, first compound 3.16 µM
[12] = second compound 0.01 µM, first compound 10 µM
[13] = second compound 0.0316 µM, first compound 0.0316 µM
[14] = second compound 0.0316 µM, first compound 0.1 µM
[15] = second compound 0.0316 µM, first compound 0.316 µM
[16] = second compound 0.0316 µM, first compound 1 µM
[17] = second compound 0.0316 µM, first compound 3.16 µM
[18] = second compound 0.0316 µM, first compound 10 µM
[19] = second compound 0.1 µM, first compound 0.0316 µM
[20] = second compound 0.1 µM, first compound 0.1 µM
[21] = second compound 0.1 µM, first compound 0.316 µM
[22] = second compound 0.1 µM, first compound 1 µM
[23] = second compound 0.1 µM, first compound 3.16 µM
[24] = second compound 0.1 µM, first compound 10 µM
[25] = second compound 0.316 µM, first compound 0.0316 µM
[26] = second compound 0.316 µM, first compound 0.1 µM
[27] = second compound 0.316 µM, first compound 0.316 µM
[28] = second compound 0.316 µM, first compound 1 µM
[29] = second compound 0.316 µM, first compound 3.16 µM
[30] = second compound 0.316 µM, first compound 10 µM
[31] = second compound 1 µM, first compound 0.0316 µM
[32] = second compound 1 µM, first compound 0.1 µM
[33] = second compound 1 µM, first compound 0.316 µM
[34] = second compound 1 µM, first compound 1 µM
[35] = second compound 1 µM, first compound 3.16 µM
[36] = second compound 1 µM, first compound 10 µM

C#Cc1c(F)ccc2cc(O)cc(-c3ncc4c(N5CC6CCC(C5)N6)nc(OCC56CCCN5CC(F)C6)nc4c3F)c12 (centres undefined) + COc1c(OCCCN2CCOCC2)ccc2c3n(c(=NC(=O)c4cnc(N)nc4)nc12)CCN3
< 5.00: pIC50 (second compound 0.00316 µM) | pIC50 (second compound 0.01 µM)
5.44: pIC50 (second compound 0.1 µM)
active: viability, T/C [31] 2.58% | viability, T/C [32] 2.36% | viability, T/C [33] 2.21% | viability, T/C [34] 2.61% | viability, T/C [35] 1.99% | viability, T/C [36] 0.74%
inactive: viability, T/C [1] 89.4% | viability, T/C [2] 82.8% | viability, T/C [3] 96.7% | viability, T/C [4] 96.8% | viability, T/C [5] 84.5% | viability, T/C [6] 56.9% | viability, T/C [7] 72.7% | viability, T/C [8] 91.3% | viability, T/C [9] 87% | viability, T/C [10] 87% | viability, T/C [11] 77.7% | viability, T/C [12] 61% | viability, T/C [13] 76.5% | viability, T/C [14] 68.8% | viability, T/C [15] 74.2% | viability, T/C [16] 83.9% | viability, T/C [17] 72.4% | viability, T/C [18] 43.7% | viability, T/C [19] 53.9% | viability, T/C [20] 52% | viability, T/C [21] 61.3% | viability, T/C [22] 61.8% | viability, T/C [23] 52.8% | viability, T/C [24] 24.6% | viability, T/C [25] 25.1% | viability, T/C [26] 23% | viability, T/C [27] 25.9% | viability, T/C [28] 27.2% | viability, T/C [29] 20.1% | viability, T/C [30] 6.75%
> 7.50: pIC50 (second compound 0.316 µM) | pIC50 (second compound 1 µM)
5.11: pIC50 (second compound 0.0316 µM)

C=CC(=O)N1CCN(c2nc(=O)n(-c3c(C)ccnc3C(C)C)c3nc(-c4c(O)cccc4F)c(F)cc23)C(C)C1 (centres undefined) + COc1c(OCCCN2CCOCC2)ccc2c3n(c(=NC(=O)c4cnc(N)nc4)nc12)CCN3
inactive: viability, T/C [1] 92% | viability, T/C [2] 92.9% | viability, T/C [3] 97.5% | viability, T/C [4] 109% | viability, T/C [5] 104% | viability, T/C [6] 79.1% | viability, T/C [7] 81.1% | viability, T/C [8] 80.5% | viability, T/C [9] 102% | viability, T/C [10] 97% | viability, T/C [11] 99.7% | viability, T/C [12] 70.1% | viability, T/C [13] 75.2% | viability, T/C [14] 73.4% | viability, T/C [15] 79.8% | viability, T/C [16] 89.7% | viability, T/C [17] 80.2% | viability, T/C [18] 65% | viability, T/C [19] 56.7% | viability, T/C [20] 58.4% | viability, T/C [21] 50.9% | viability, T/C [22] 63.1% | viability, T/C [23] 61.5% | viability, T/C [24] 41.3% | viability, T/C [25] 29.9% | viability, T/C [26] 26.6% | viability, T/C [27] 27.8% | viability, T/C [28] 31.4% | viability, T/C [29] 28.2% | viability, T/C [30] 18.4%
< 5.00: pIC50 (second compound 0.00316 µM) | pIC50 (second compound 0.01 µM) | pIC50 (second compound 0.0316 µM) | pIC50 (second compound 0.1 µM)
active: viability, T/C [31] 4.14% | viability, T/C [32] 3.02% | viability, T/C [33] 3.41% | viability, T/C [34] 3.9% | viability, T/C [35] 3.76% | viability, T/C [36] 2.73%
> 7.50: pIC50 (second compound 0.316 µM) | pIC50 (second compound 1 µM)
